The source of these data is patent US6124347A, “Chromene derivatives and salts thereof, and pharmaceuticals containing the same” (SSP Co., Ltd., priority 1997, dated 2000).

This assay has as its system ovolysozyme. Kind of assay: AGE formation inhibitory action (lysozyme dimer formation with xylose, SDS-PAGE, silver staining). It is filed as biochemical. To be noted: 1 mg/ml ovolysozyme, 100 mM xylose, pH 7.4, 37° C., 21 days; dimer (28.8 Kda) formation relative to control. As for the experimental part: With respect to each test compound, solutions of the test compound in dimethyl sulfoxide, said solutions containing said test compound at various concentrations, were each added together with 1 mg/ml of ovolysozyme and 100 mM of xylose to a phosphate-buffered physiological saline of pH 7.4. Each reaction mixture was then incubated at 37° C. for 21 days. A portion of the reaction mixture, said portion being in a predetermined amount, was then separated by sodium lauryl sulfate-polyacrylamide gel electrophoresis (SDS-PAGE). After the electrophoresis, the gel was treated by silver staining to stain proteins. AGE formation inhibitory action of the test compound was calculated in terms of 50% inhibitory concentration by image-processing and analyzing the degree of formation of the dimer (28.8 Kda) of lysozyme (14.4 Kda) relative to that in a control, that is, a reaction mixture not added with the test compound while making use of NIH Image Ver. 1.55.

Molecules are shown by their SMILES. Values after ≈ are worked out from the molar mass of the structure shown.

Regarding `N=C(N)NN` [Amionoguanidine, aminoguanidine, reference compound], the “IC50 (AGE formation inhibitory action, 50% inhibitory concentration)” value came out at 30 µg/mL (≈ 405 µM).

Regarding `Oc1cccc(C(O)CNCC2=Cc3ccccc3OC2)c1` (stereo not shown) [Compound 6], the “IC50 (AGE formation inhibitory action, 50% inhibitory concentration)” value is 10 µg/mL (≈ 33.6 µM).

`COc1cc(C(O)CNCC2=Cc3ccccc3OC2)cc(OC)c1O` (stereo not shown) [Compound 9, 4-{2-[(2H-3-chromenylmethyl)amino]-1-hydroxyethyl}-2,6-dimethoxyphenol]: the “IC50 (AGE formation inhibitory action, 50% inhibitory concentration)” value stood at 30 µg/mL (≈ 83.9 µM).

Consider `COc1cccc2c1OCC(CNCC(O)c1ccc(O)c(O)c1)=C2` (stereo not shown) [Compound 15], for which the “IC50 (AGE formation inhibitory action, 50% inhibitory concentration)” value turned out to be 3 µg/mL (≈ 8.74 µM).
